Read-outs that look alike come from different tables or passages of the source.
Tests used:
OCT3 = target: T1, OCT3 (Homo sapiens, UniProt O75751); assay: Flow cytometric ASP+-uptake inhibition, HEK-OCT3; assay type: cell-based; details: for potency relative to TPA at OCT3: from IC50 values, p ≤ 0.05
T1 construct: expressed in transfected cells; host or cells: HEK293 (HEK-OCT3)
T1 sequence (O75751 1-556): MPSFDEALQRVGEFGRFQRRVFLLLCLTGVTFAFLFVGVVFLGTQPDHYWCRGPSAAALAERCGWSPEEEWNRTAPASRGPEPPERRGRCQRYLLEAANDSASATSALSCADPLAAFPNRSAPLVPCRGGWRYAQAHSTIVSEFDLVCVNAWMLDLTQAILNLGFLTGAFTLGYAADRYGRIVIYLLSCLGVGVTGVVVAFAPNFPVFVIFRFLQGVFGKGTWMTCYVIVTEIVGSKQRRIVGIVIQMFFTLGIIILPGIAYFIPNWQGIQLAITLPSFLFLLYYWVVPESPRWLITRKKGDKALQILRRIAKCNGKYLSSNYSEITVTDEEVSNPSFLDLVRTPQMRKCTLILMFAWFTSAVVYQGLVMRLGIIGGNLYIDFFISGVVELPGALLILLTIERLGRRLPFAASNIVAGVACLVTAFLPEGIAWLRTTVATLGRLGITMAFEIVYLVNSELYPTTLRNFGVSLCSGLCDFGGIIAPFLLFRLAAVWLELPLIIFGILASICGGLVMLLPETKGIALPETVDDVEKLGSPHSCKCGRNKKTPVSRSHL
Protocol: The previously described fluorescent substrate of organic cation transporters, 4-(4-dimethylaminostyryl)-N-methylpyridinium (ASP^+), was used to determine the function of OCT1 and OCT3 by flow cytometry in the absence and the presence of bendamustine and selected bendamustine esters. HEK293 cells expressing the transporter of interest were trypsinized and washed twice with PBS, prior to re-suspension of 0.5 · 10^6 cells in 500 μL of PBS containing 2% (v/v) FCS. The cells were incubated with ASP^+ (100 μM stock solution in PBS containing 10% DMSO) for 5 minutes, allowing for cellular accumulation, and subsequently analyzed with a FACSCalibur flow cytometer. ASP^+ was excited at 488 nm and the fluorescence was measured using a 530/30 nm and a 585/42 band-pass filter. At least 1 · 10^4 single cells were analyzed by appropriate FSC/SSC gating.
The cells were pre-incubated with the respective test compound at different concentrations at room temperature for 10 minutes. Afterwards, ASP^+ was added to a final concentration of 1 μM, and the samples were incubated at 37°C in the dark for 5 minutes. Subsequently, the cells were washed, re-suspended in ice-cold PBS/FCS and stored on ice in the dark until measurement.
The normalized mean fluorescence intensities of the OCT expressing cells, set to 100% in the absence of an inhibitor, were calculated by subtracting the mean fluorescence intensity of unspecific ASP^+ uptake into HEK-Co control cells. The normalized fluorescence intensities in the presence of an inhibitor were plotted against the logarithm of the concentrations of the test compounds to calculate IC50 values. The “log (inhibitor) vs. normalized response-variable slope” equation of GraphPad Prism 5.01 was used for this purpose.

HT-29 cells = assay: Quantification of cell-associated compound by HPLC, HT-29; assay type: cell-based, human; details: 30 μM, 10 minutes; for amount of cell-associated compound: mean ± SEM
Protocol: Accumulation of bendamustine and selected bendamustine esters by HT-29 and NCI-H460 cells was determined by HPLC. For this purpose, 1.5 · 10^6 cells/well were seeded into 6-well plates (Sarstedt, Nümbrecht, Germany). After two days of cultivation, the cells were incubated in PBS containing 30 μM of 1, 2, 4 or 5 and 200 μM of umbelliferone as internal standard at 37°C for 10 minutes. After removing the medium, the cells were washed three times with PBS. Untreated cells were detached with trypsin/EDTA and counted. The treated cells were harvested by adding 200 μL of ice-cold perchloric acid (1 M) and scraping. Subsequently, the samples were vortexed and sonicated (Branson 3200 ultrasonic cleaner; Branson, Danbury, USA) for 10 minutes. After 5 minutes of centrifugation (13000 g, 4°C), the supernatants were filtered (0.2 μm Phenex; Phenomenex, Aschaffenburg, Germany) and directly analyzed by HPLC with fluorescence detection according to a recently reported validated procedure. The normalization of the measured concentration to the cell count allowed for a calculation of the cell-associated amount of the respective test compound. Additionally, the ratio of cell-associated substance compared to the applied concentration (30 μM) was calculated based on an average cell volume of 3 pL.

[1] = tested on: HT-29 cells (colorectal adenocarcinoma); assay: Chemosensitivity assay (crystal violet assay), HT-29; assay type: cell-based, human; details: 96 hours of incubation, mean ± SEM
Protocol: (§1) Depending on the characteristics of the cells, two different assays were performed. For adherently growing cells (HaCaT, HT-29, NCI-H460, SK-MEL-3, MG-63, Capan-1), cytotoxic and cytocidal effects were determined in the crystal violet assay, whereas for loosely adherent cells (LNCaP, SK-ES-1) and cells growing in suspension (HEL 92.1.7, Jurkat, U-937) the MTT-assay was used with minor modifications. In brief, 1.5 · 10^3 (HaCaT, HT-29, NCI-H460, SK-MEL-3, MG-63, Capan-1) or 5 · 10^3 (Jurkat, U-937, HEL92.1.7, LNCaP, SK-ES-1) cells per well were seeded into flat-bottom 96-well plates (Sarstedt, Nümbrecht, Germany). All compounds were used as solutions prepared in DMSO and tested at final concentrations (8 replicates per concentration) of 1, 3, 10, 30 and 50 μM. In case of the vehicle control and test compounds, the final DMSO concentration amounted to 0.1%. Absorbance was measured at 580 nm in a 96-well plate reader (GENios pro microplate reader, Tecan, Salzburg, Austria). Effects were quantified as previously described for both assays.

[2] = tested on: HEL 92.1.7 cells (erythroleukemia); assay: Chemosensitivity assay (MTT-assay), HEL 92.1.7; assay type: cell-based, human; details: 96 hours of incubation, mean ± SEM
Protocol: as §1

[3] = tested on: Jurkat cells (acute T-cell leukemia); assay: Chemosensitivity assay (MTT-assay), Jurkat; assay type: cell-based, human; details: 96 hours of incubation, mean ± SEM
Protocol: as §1

Jurkat cells = assay: Detection of apoptosis (annexin V/propidium iodide assay); assay type: cell-based, human
Protocol: Apoptosis was determined by incubating proliferating Jurkat cells with medium containing 1, 2, 4 or 5 at a concentration of 10 μM or 0.1% of DMSO (untreated control). After different periods of incubation (6, 24, 48 hours), samples were analyzed using the Annexin V-FITC apoptosis detection kit l (BD Biosciences, Heidelberg, Germany) according to the manufacturer’s protocol using 10^6 cells/mL. Cells were analyzed using a FACSCalibur flow cytometer (BD Biosciences, Heidelberg, Germany). The compensation was performed for each experiment with annexin V-FITC (530/30 BP filter) and propidium iodide (585/42 BP filter), respectively. At least 1 · 10^4 events were registered per sample and debris as well as cell aggregates were excluded by forward (FSC) versus side scatter (SSC) gates. Raw data were analyzed using FlowJo V10 software (Treestar Inc., Ashland, OR, USA).

Row | Structure (SMILES) | IC50 (OCT3) | inhibition at 200 µM (OCT3; read-out: inhibition of OCT3) | amount of cell-associated compound (HT-29 cells) | IC50 [1] | IC50 ([1]; Homo sapiens, read-out: IC50) | IC50 [2] | IC50 ([2]; Homo sapiens, HEL 92.1.7, 96 h) | IC50 [3] | IC50 ([3]; Homo sapiens, 96 h) | effect on apoptosis compared to the control cells (Jurkat cells; 10 μM, regardless of the period of incubation (6, 24, 48 hours)) | potency relative to TPA at OCT3 (OCT3) | fraction of early apoptotic cells (Jurkat cells; 10 μM, 24 hours) | fraction of early apoptotic cells (Jurkat cells; 10 μM, 48 hours) | fraction of secondary necrotic cells (Jurkat cells; 10 μM, 48 hours) | cellular enrichment relative to bendamustine (HT-29 cells) | fraction of early apoptotic cells (Jurkat cells; 10 μM, 6 hours) | cells either early apoptotic or secondary necrotic (Jurkat cells; 10 μM, 24 hours) | fraction of secondary necrotic cells (Jurkat cells; 10 μM, 24 hours) | viability at 10 µM (Jurkat cells; Homo sapiens, Jurkat, 48 h, two days after treatment, read-out: viable cells)
1 | Cn1c(CCCC(=O)O)nc2cc(N(CCCl)CCCl)ccc21 [Compound 1, bendamustine, reference compound] | > 200 µM | 37% | 0.07 ± 0.011 nmol/10^6 cells | ineffective | > 100 µM | 86.2 ± 2.6 µM | > 80 µM | 43.4 ± 4.8 µM | 43 µM | no effect | – | – | – | – | – | – | – | – | –
2 | COC(=O)CCCc1nc2cc(N(CCCl)CCCl)ccc2n1C [Compound 2] | 5.1 ± 1.4 µM | – | 2.05 ± 0.39 nmol/10^6 cells | – | 9.4 ± 0.4 µM | – | 2.5 ± 0.1 µM | – | 3.1 ± 0.1 µM | – | approximately four | approximately 10% | 15% | 20–25% | – | – | – | – | –
3 | Cn1c(CCCC(=O)OCCN2CCOCC2)nc2cc(N(CCCl)CCCl)ccc21 [Compound 4] | 5.1 ± 0.02 µM | – | 1.59 ± 0.23 nmol/10^6 cells | – | 9 ± 0.5 µM | – | 2.4 ± 1 µM | – | 3.2 ± 1 µM | – | approximately four | approximately 10% | 15% | 20–25% | – | – | – | – | –
4 | Cn1c(CCCC(=O)OCCN2CCCC2)nc2cc(N(CCCl)CCCl)ccc21 [Compound 5] | 3.41 ± 0.16 µM | – | 5.01 ± 0.34 nmol/10^6 cells | – | 1.1 ± 0.1 µM | – | 1 ± 0.01 µM | – | 0.61 ± 0.02 µM | – | approximately four | 20% | – | 70% | approximately 70 fold | ~ 2.5% | Approximately 50% | 30% | ~15%

Source: article PMC4721923 (PLoS ONE, 2015)
